In US20110189280A1, “DOSAGE FORM COMPRISING 1-ISOPROPYL-4-HEXAHYDRO-1H-1,4-DIAZEPINE OR A SALT THEREOF” (priority 2008, published 2011):

Experiment: Gravimetric vapour sorption (GVS) analysis, water sorption/desorption at different relative humidities
Assay type: physicochemical
Details: across the 0-90% relative humidity range at 25° C. under nitrogen

| Structure (SMILES) | water reversibly adsorbed and/or absorbed, and/or desorbed (GVS) | water adsorbed and/or absorbed, and/or desorbed (GVS), compared with crystalline Form 1 mono-maleate (sample before purification by recrystallisation, data not shown) |
| --- | --- | --- |
| CC(C)N1CCCN(C(=O)c2ccc(OC3CCOCC3)cc2)CC1.O=C(O)/C=C\C(=O)O [Drug Preparation Example 3, 1-Isopropyl-4-{[4-(tetrahydro-2H-pyran-4-yloxy)phenyl]carbonyl}hexahydro-1H-1,4-diazepine mono-maleate salt (crystalline Form 1)] | approximately 0.4 % w/w |  |
| CC(C)N1CCCN(C(=O)c2ccc(OC3CCOCC3)cc2)CC1.Cl [Drug Preparation Example 1 Part C, 1-isopropyl-4-{[4-(tetrahydro-2H-pyran-4-yloxy)phenyl]carbonyl}hexahydro-1H-1,4-diazepine hydrochloride] |  | higher quantities of water |
